Measured values taken from patent US20190065668A1, “STRUCTURE OF […] IN COMPLEX WITH AN INHIBITOR AND USES THEREOF” (priority 2015, published 2019).
Where a name gives a salt, the structure may show the parent alone. Read-outs that look alike come from different tables or passages of the source.

What was measured:
[1] = biological target: T1, recombinant P. falciparum plasmepsin V (Plasmodium falciparum, UniProt Q8I6Z5); test: Kinetic characterisation of recombinant plasmepsin V (Michaelis-Menten / Lineweaver-Burk), P. falciparum enzyme; format: biochemical; conditions: fluorogenic PEXEL substrate from KAHRP
T1 construct: FLAG tag + SUMO domain + TEV protease cleavage site (secreted via signal peptide) (N, cleaved yes); made in house; host or cells: sf21 insect cells
Description: (§1) The in vitro activity of recombinant P. falciparum and P. vivax plasmepsin V was assessed against a fluorogenic peptide of nine amino acids that contained the PEXEL sequence from knob-associated histidine-rich protein (“KAHRP”) (DABCYL-[…]-E-EDANS; SEQ ID NO: 7).
(§2) Values for Km were derived from both the inverse Michaelis-Menten and the Lineweaver-Burk plots. These values were of the same magnitude for each enzyme and are also similar to the Km derived from the activity of another recombinant form of P. falciparum plasmepsin V on a different PEXEL substrate (Xiao, H. et al. 2014).
(§3) PEXEL cleavage assays (20 μl total volume) consisted of 1 ng/well of P. vivax plasmepsin V or 1.5 ng/well of P. falciparum plasmepsin V in buffer (25 mM Tris.HCl, 25 mM MES, pH 6.4) with 5 μM FRET peptide substrate (DABCYL-[…]-E-EDANS (SEQ ID NO:7) or peptides with the sequence DABCYL-[…]-E-EDANS (SEQ ID NO:8) or DABCYL-[…]-E-EDANS (SEQ ID NO:9)) (Sleebs, B. E. et al. 2014a; see FIG. 9). Samples were incubated at 37° C. for 120 min and measured using an Envision plate (Perkin-Elmer) reader (Ex 340 nm/Em 490 nm).

P. vivax plasmepsin V [2] = biological target: T2, P. vivax plasmepsin V (Plasmodium vivax, UniProt A5K302); test: Kinetic characterisation of recombinant plasmepsin V (Michaelis-Menten / Lineweaver-Burk), P. vivax enzyme; format: biochemical; conditions: fluorogenic PEXEL substrate from KAHRP
T2 construct: gp67 signal peptide + FLAG tag + SUMO domain + TEV protease cleavage site (N, cleaved yes); made in house; host or cells: High Five insect cells
Description: as §1, §2, §3

P. vivax plasmepsin V [3] = biological target: T2, P. vivax plasmepsin V; test: Surface plasmon resonance (Biacore 4000) direct binding; conditions: SPR; for Kd: 25° C., 1:1 interaction model, read-out: affinity (KD) for P. vivax plasmepsin V; for kd (off-rate): P. vivax plasmepsin V
Description: Surface plasmon resonance was performed using a Biacore 4000 (GE Healthcare). Plasmepsin V was immobilized on a Series S CM5 sensor chip using amine-coupling chemistry. The surfaces of flow cells were activated for 10 min with a 1:1 mixture of 0.1 M NHS (N-hydroxysuccinimide) and 0.1 M EDC (3-(N,N-dimethylamino)propyl-N-ethylcarbodiimide) at a flow rate of […]. […] Compounds were allowed to associate and dissociate for 250 s and 600 s, respectively. Data were collected at a rate of 10 Hz and fit to a 1:1 interaction model using the Biacore 4000 Evaluation Software Version 1.0.

[4] = system: plasmepsin V cleavage of the PEXEL in PfEMP3-GFP; test: PfEMP3-GFP PEXEL processing in P. falciparum trophozoites (immunoblot / 35S radiolabelling and immunoprecipitation); format: cell-based, Plasmodium falciparum
Excerpt: P. falciparum 3D7 expressing the PEXEL protein erythrocyte membrane protein 3 (PfEMP3) fused to green fluorescent protein (GFP) (PfEMP3-GFP) was generated previously (Boddey, J. A. et al, 2010) (see FIG. 2C).
Membranes were probed with mouse a-GFP (Roche; 1:1000), rabbit a-Aldolase (1:1000) or rabbit a-HSP70 (1:4000) antibodies followed by horseradish peroxidase-conjugated secondary antibodies (Silenius; 1:2000) and visualized using enhanced chemiluminescence (Amersham). To radiolabel P. falciparum proteins, magnet-purified trophozoites expressing PfEMP3-GFP were treated with 10 μM inhibitors for 3 hr. […] PfEMP3-GFP protein species were then immunoprecipitated from parasite lysates solubilized in 1% Triton X-100/PBS containing 1× complete protease inhibitors (Roche) using anti-GFP agarose (MBL) for 2 hours at 4° C. and proteins were resolved by SDS-PAGE, visualized by autoradiography and quantified using a GS-800 Calibrated Densitometer (Bio-Rad) (Sleebs, B. E. et al. 2014a).

[5] = system: export of PfEMP3-GFP to P. falciparum-infected erythrocytes; test: Pulse chase of PfEMP3-GFP processing and export to infected erythrocytes (tetanolysin release); conditions: for export of PfEMP3-GFP to parasite-infected erythrocytes: 10 μM pre-treatment 3 hr
P. falciparum parasites = test: P. falciparum growth assay, parasitaemia at 72 hr by flow cytometry
[6] = biological target: T1, recombinant P. falciparum plasmepsin V; test: Fluorogenic PEXEL cleavage assay (KAHRP FRET peptide), inhibition of recombinant P. falciparum plasmepsin V; format: biochemical
Description: as §3
Reactions comprised of a fluorescent peptide of nine amino acids containing the PEXEL sequence (RTLAQ) from KAHRP. The KAHRP PEXEL peptide substrate DABCYL-[…]-E-EDANS (SEQ ID NO:7) was obtained commercially and used at a final assay concentration of 7.5 μM.
The end-point for all assays was set within the linear range of activity (approximately 1 hr.).
Tween-20 was used at 0.005% final assay concentration. Final assay buffer concentration was as follows: 25 mM Tris HCl, 25 mM MES (pH 6.4). Final assay volume was 20 μL.
An 11-point 1/3 serial dilution of compounds was generated using DMSO as a diluent (final assay concentration of 1%).
Assay reaction was incubated for 60 min at 37° C. and read using a fluorescence plate reader (Ex 340 nm, Em 495 nm). […]

[7] = system: plasmepsin V cleavage of the PEXEL in PfEMP3-GFP; conditions: PfEMP3-GFP processing; from Sleebs, B. E. et al. 2014; cited from earlier work
P. vivax plasmepsin V [8] = biological target: T2, P. vivax plasmepsin V; test: Fluorogenic PEXEL cleavage assay (KAHRP FRET peptide), inhibition of recombinant P. vivax plasmepsin V; format: biochemical; conditions: KAHRP fluorogenic substrate 7.5 μM, 60 min, 37° C., pH 6.4
[9] = read-out: EC50, inhibition of growth of P. falciparum (3D7) parasites, 3D7, chloroquine-sensitive strain, 72 hr

T2 sequence (A5K302 33-476, looked up, natural form): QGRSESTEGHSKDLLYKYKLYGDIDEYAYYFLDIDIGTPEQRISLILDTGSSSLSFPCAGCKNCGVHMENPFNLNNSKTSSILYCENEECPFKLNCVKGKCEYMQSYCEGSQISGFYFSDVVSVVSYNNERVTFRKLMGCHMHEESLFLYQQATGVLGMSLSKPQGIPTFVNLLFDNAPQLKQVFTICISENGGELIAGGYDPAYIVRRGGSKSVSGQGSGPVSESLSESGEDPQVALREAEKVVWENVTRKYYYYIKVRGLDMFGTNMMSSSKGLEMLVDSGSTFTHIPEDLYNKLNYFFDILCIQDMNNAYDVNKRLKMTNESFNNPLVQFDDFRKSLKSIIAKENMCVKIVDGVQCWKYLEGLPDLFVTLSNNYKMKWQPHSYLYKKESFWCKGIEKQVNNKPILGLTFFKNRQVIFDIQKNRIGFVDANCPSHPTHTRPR
T1 sequence (Q8I6Z5 80-528): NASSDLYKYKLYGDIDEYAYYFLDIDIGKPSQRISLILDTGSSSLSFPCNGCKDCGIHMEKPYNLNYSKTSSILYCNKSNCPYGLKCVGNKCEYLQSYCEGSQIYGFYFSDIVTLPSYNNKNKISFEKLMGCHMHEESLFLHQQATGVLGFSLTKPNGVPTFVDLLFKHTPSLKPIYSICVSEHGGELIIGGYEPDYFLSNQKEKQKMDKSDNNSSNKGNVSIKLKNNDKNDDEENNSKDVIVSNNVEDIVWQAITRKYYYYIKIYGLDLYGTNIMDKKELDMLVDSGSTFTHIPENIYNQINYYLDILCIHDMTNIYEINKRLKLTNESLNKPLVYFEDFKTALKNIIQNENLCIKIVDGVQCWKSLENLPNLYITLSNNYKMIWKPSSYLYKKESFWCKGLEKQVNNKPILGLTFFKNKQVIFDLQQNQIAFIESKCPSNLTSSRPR

Which Km [1] does the source give for “DABCYL-RNKRTLAQKQ-E-EDANS [fluorogenic PEXEL substrate from KAHRP]” here?
Its Km is 20.2 µM.

What about the Km (P. vivax plasmepsin V [2]) of the same compound?
Its Km is 6 µM.

Which Kd (P. vivax plasmepsin V [3]) does the source give for `CC(C)C[C@H](NC(=O)[C@@H](NC(=O)[C@H](CCON=C(N)N)NC(=O)OCc1ccccc1)C(C)C)[C@@H](O)CC(=O)NCCc1ccccc1` [WEHI-842, Cbz-Cav(NH2)—Val-Sta-NH(CH2)2Ph.TFA] here?
Its Kd is 13.4 nM.

And the “kd (off-rate)” value (P. vivax plasmepsin V [3])?
The value was 1.11 E-03 1/s.

What about the “inhibition of plasmepsin V cleavage of PfEMP3-GFP” value ([4]; 10 μM, 3 hours, immunoblot) of the same compound?
The value was “potently inhibited plasmepsin V cleavage of PfEMP3-GFP”.

What about the “time required for optimal inhibition of plasmepsin V in parasites” value ([4]; PfEMP3-GFP processing) of the same compound?
The value was 3 h.

And the “degree of PEXEL processing inhibition compared to WEHI-916” value ([4]; PfEMP3-GFP, immunoblot)?
Its value is 10 fold.

And the “inhibition of PEXEL cleavage (accumulation of 35 kDa full-length PfEMP3-GFP)” value ([4]; parasites expressing PfEMP3-GFP, immunoblot)?
Its value is “efficiently inhibited PEXEL cleavage”.

What about the “reversibility of inhibition of PEXEL cleavage after removal of inhibitor” value ([5]; 10 μM 3 hr, then inhibitor-free medium 30 and 60 min) of the same compound?
The value was “reversible”.

And the “export of PfEMP3-GFP to parasite-infected erythrocytes” value ([5]; chase 20, 40 and 60 min)?
The value was “dramatically reduced export”.

What about the “export of PfEMP3-GFP to parasite-infected erythrocytes” value ([5]; chase 120 min) of the same compound?
The value was “Efficient export of PfEMP3-GFP returned”.

What about the EC50 (P. falciparum parasites; [9]) of the same compound?
The EC50 was 400 nM.

What about the EC50 (P. falciparum parasites; read-out: EC50, inhibition of growth of P. falciparum CS2, CS2, 72 hr) of the same compound?
Its EC50 is 830 nM.

And the EC50 (P. falciparum parasites; read-out: EC50, inhibition of growth of P. falciparum NF54, NF54, 72 hr)?
The EC50 was 470 nM.

And the EC50 (P. falciparum parasites; read-out: EC50, inhibition of growth of P. falciparum W2mef, W2mef (chloroquine-resistant), 72 hr)?
The EC50 was 640 nM.

And the “increased potency against recombinant P. falciparum plasmepsin V compared to WEHI-916” value ([6]; ratio of IC50 values)?
Its value is 15 fold.

What does the source list for `CC(C)C[C@H](NC(=O)[C@@H](NC(=O)[C@H](CCCNC(=N)N)NS(=O)(=O)Cc1ccccc1)C(C)C)[C@@H](O)CC(=O)NCCc1ccccc1` [WEHI-916, reference compound]?
Kd (P. vivax plasmepsin V [3]): 42 nM; kd (off-rate) (P. vivax plasmepsin V [3]): 2.47 E-03 1/s; time required for optimal inhibition of plasmepsin V in parasites [7]: 5 h; EC50 (P. falciparum parasites; read-out: EC50, blocking P. falciparum growth, summary statement, strain not stated): 5000 nM; EC50 (P. falciparum parasites; [9]): 5000 nM; IC50 (P. vivax plasmepsin V [8]): 8.2 nM; IC50 ([6]; KAHRP fluorogenic substrate 7.5 μM, 60 min, 37° C., pH 6.4, read-out: IC50 against recombinant P. falciparum plasmepsin V): 12.9 nM
